According to patent publication US12103946B2, “Steroid compounds as Treg modulators and uses thereof” (New York University, priority 2018, dated 2024):
Like-named read-outs stand apart in the source and are kept apart here. Blank lines part the entries; values can stand above or below the molecule they belong to.

Experiments:
[1] = test system: fusion protein of RORγt and Gal4-DBD; experiment: RORγt luciferase reporter assay in HEK293 cells; type: cell-based, human; settings: ML209 2 μM, bile acids 10 μM
Description: Data are shown as the mean±standard deviation by unpaired t-test with 2-tailed p-value.
(§1) We next examined if 3-oxoLCA physically interacts with the RORγt protein in vitro. A microscale thermophoresis (MST) assay was performed with recombinant human RORγt ligand-binding domain (LBD). […] Next, we examined if 3-oxoLCA modulates the transcriptional activity of RORγt. We assayed the effect of the bile acids on firefly luciferase expression directed by a fusion protein of RORγt and Gal4-DBD (DNA-binding domain) in human embryonic kidney (HEK) 293 cells^14.

[2] = test system: naïve CD4+ T cells (Th17 differentiation, IL-17a); experiment: In vitro Th17 differentiation, IL-17a staining by flow cytometry; type: cell-based, mouse; settings: for Th17 cell differentiation (IL-17a): bile acids 20 μM, 3 days, IL-6 and TGF-β
Description: (§2) Our screen included both primary bile acids, synthesized by the host, and secondary bile acids, produced by bacterial modification of primary bile acids (FIG. 5). Naïve CD4^+ T cells were isolated from wild-type C57BL/6J (B6) mice and cultured with bile acids under Th17 differentiation conditions and, as a counter-screen, Treg differentiation conditions (FIG. 6).
(§3) In Vitro T Cell Culture. Naïve CD4^+ (CD62L^+ CD44^− CD25^− CD4^+) T cells were isolated from the spleens and the lymph nodes of mice of designated genotypes with FACS sorting. For certain experiments, naïve CD4^+ T cells were enriched using naïve CD4^+ T cell isolation kits (Miltenyi). Naïve CD4^+ T cells (40,000 cells) were cultured in a 96-well plate pre-coated with hamster IgG (MP Biomedicals) in T cell medium (RPMI, 10% fetal bovine serum, 25 mM glutamine, 55 μM 2-mercaptoethanol, 100 U/mL penicillin, […] streptomycin) supplemented with 0.25 μg/mL anti-CD3 (clone 145-2C11) and 1 μg/mL anti-CD28 (clone 37.51). For Th0 culture, T cells were cultured with the addition of 100 U/mL of IL-2 (PEPROTECH). For Th1 cell differentiation, T cells were cultured with the addition of 100 U/mL of IL-2, 10 μg/mL of anti-IL-4 (clone 11B11) and 10 ng/mL of IL-12 (PEPROTECH). For Th2 cell differentiation, T cells were cultured with the addition of 10 μg/mL of anti-IFNγ (clone XMG1.2) and 10 ng/mL of IL-4 (R&D Systems). For Th17 cell differentiation, T cells were cultured with the addition of 10 ng/mL of IL-6 (eBioscience) and 0.5 ng/mL of TGF-β (PEPROTECH). For Treg culture, T cells were cultured with the addition of 100 U/mL of IL-2 and various concentrations of TGF-β. […] Bile acids, retinoic acid (Sigma) or mitoQ (Focus Biomolecules), or mitoPQ (Sigma) were added either at 0 or 16 h time points. Compounds with low water solubility were sonicated before adding to the culture. Cells were harvested and assayed by flow cytometry on day 3. For ROS and mitochondrial membrane potential detection, cells cultured for 2 days were incubated with 5 μM of mitoSOX (ThermoFisher), 10 μM of DCFDA (Sigma) or 2 μM of JC-1 (ThermoFisher) for 30 min and assayed with flow cytometry.
(§4) Flow Cytometry. Cells harvested from in vitro culture or in vivo mice experiments were stimulated with 50 ng/mL PMA (Phorbol 12-myristate 13-acetate, Sigma) and 1 μM ionomycin (Sigma) in the presence of GolgiPlug (BD) for 4 h to determine cytokine expression. After stimulation, cells were stained with cell surface marker antibodies and LIVE/DEAD Fixable dye, Aqua, to exclude dead cells, fixed and permeabilized with a FoxP3/Transcription factor staining kit (eBioscience), followed by staining with cytokine- and/or transcription factor-specific antibodies. All flow cytometry analyses were performed on an LSR II flow cytometer (BD) and data were analyzed with FlowJo software (TreeStar).

physchem = settings: pH 8
Description: (§5) Measurement of lipophilicity. Partitioning Method: 2 μL of 10 mM stock solutions of each target compound was added to a 1 mL each of 50 mM ammonium bicarbonate (pH=8), and 1 mL of n-octanol in an Eppendorf tube. The resulting two-phase mixture was vortexed and then shaken for 18 h at 20° C. The two phases were then carefully separated into the aqueous sample (bottom layer), and organic sample (top-layer) and placed separately in autosampler vials and analyzed by LC-MS/MS. LC-MS Method: a Thermo q-Exactive Plus LC-MS equipped with an Ultimate 3000 HPLC was operated in negative ion mode after optimized to detect the [M− H]^− of the bile acids. […] A Dikma Inspire C8 column (3 μm particle size, 100 mm length, 4.6 mm ID) was used for analysis. Each injection was 5 μL, and a constant flow rate of 0.400 L/min was used. The gradient started at 0% B and was held constant for 2 minutes. Then the mobile phase composition was linearly changed to 100% B over 8 minutes and held at 100% for the following 5 minutes. The mobile phase composition was changed to 0% B over the following 0.1 minutes and the system was allowed to equilibrate to starting conditions over 1.9 minutes. Standards of all targets were used to establish retention times. Better than 2 ppm mass accuracy was obtained on all measurements. The LC-MS analysis was done in triplicate, while the partitioning was done once for each target's [M− H]^− ion. Calculation of log D: the total response of target in octanol was divided by the total response in the aqueous phase to get a partitioning coefficient. Then, log base 10 was taken and reported.

CD4+ T cells = settings: for cell viability: 3-day culture
Description: Representative FACS plots of CD4^+ T cells cultured for 3 days and stained intracellularly for FoxP3 (e). Quantification of FoxP3^+ and viable T cells after 3-day culture (f) (n=2/group). n, number of biologically independent samples. Data are representative of two independent experiments (b, d). Data in (c) are shown as the mean±standard deviation.
Naïve CD4^+ T cells were isolated from FoxP3-IRES-GFP mice. d, Flow cytometry of CD4^+ T cells stained intracellularly for FoxP3. Naïve CD4^+ T cells isolated from WT, CNS1, CNS2 or CNS3 knockout mice (n=3/group) were cultured with anti-CD3/28 and IL-2, LCA (20 μM), TGF-β (0.05 ng/ml) and additional retinoic acid (RA; 1 ng/ml). e and f, Flow cytometry (e) and its quantification (f) of CD4^+ T cells stained intracellularly for FoxP3. […] Data are representative of two independent experiments (c, d). Data are shown as the mean±standard deviation by unpaired t-test with 2-tailed p-value.
as §4

[3] = target: T1, recombinant human RORγt ligand-binding domain (LBD) (Homo sapiens, UniProt P51449); experiment: Microscale thermophoresis assay; settings: MST
T1 sequence (P51449 269-508 limits assumed): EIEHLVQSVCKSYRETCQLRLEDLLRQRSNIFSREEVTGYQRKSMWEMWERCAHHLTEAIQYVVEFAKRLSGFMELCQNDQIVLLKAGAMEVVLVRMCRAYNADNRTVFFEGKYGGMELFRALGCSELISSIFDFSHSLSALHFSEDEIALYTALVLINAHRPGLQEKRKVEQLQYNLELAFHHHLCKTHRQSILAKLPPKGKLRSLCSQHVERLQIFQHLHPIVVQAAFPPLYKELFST
Description: as §1
Microscale Thermophoresis Assay. The binding affinity of the compounds with RORγ ligand-binding domain (LBD) was analyzed by microscale thermophoresis (MST). Purified RORγ-LBD was labeled with the Monolith NT™ Protein Labeling Kit RED (NanoTemper Technologies). Serially-diluted compounds, with concentrations of 1 mM to 20 nM, were mixed with 55 nM labeled RORγ-LBD at room temperature and loaded into Monolith™ standard-treated capillaries. Binding was measured by monitoring the thermophoresis with 20% LED power and ‘Medium’ MST power on a Monolith NT.115 instrument (Nano Temper Technologies) with the following time setting: 5s Fluo, Before; 20s MST On; and 5s Fluo, After. Kd values were fitted using the NT Analysis software (Nano Temper Technologies).

[4] = cited from earlier work
[5] = Measurement of lipophilicity (octanol/ammonium bicarbonate partitioning, LC-MS); settings: n-octanol / 50 mM ammonium bicarbonate, pH 8
Description: as §5

[6] = test system: naïve CD4+ T cells (Treg differentiation, FoxP3); experiment: In vitro Treg differentiation, FoxP3 staining by flow cytometry; type: cell-based, mouse; settings: for FoxP3 expression / Treg differentiation in cells lacking CNS3: CNS3 knockout cells
Description: To determine if bile acids influence T cell functions, the present inventors performed a small-scale screening assay with a small molecule library comprising secondary bile acids with in vitro Treg differentiation as a read-out. Naïve CD4^+ T lymphocytes were sorted from wild-type B6 mice and cultured in the presence of a TCR stimulus, interleukin 2 (IL-2), and different amounts of TGFβ (optimized for Treg differentiation). Treg differentiation was quantified at the single cell level by staining with an antibody specific for FoxP3, followed by flow cytometry analysis. Retinoic acid, a known enhancer of Treg differentiation, was used as a positive control.
as §2, §3, §4

T cells = experiment: ROS, mitochondrial mass and membrane potential (mitoSOX, DCFDA, MitoTracker, JC-1); type: cell-based, mouse; settings: 48 h
Description: Chromatin obtained from DMSO- and isoalloLCA-treated WT cells was immunoprecipitated with IgG, anti-H3K27Ac, anti-P300, or anti-H3K4me1 antibodies, followed by real-time PCR analysis (n=3/group). Primers targeting FoxP3 promoter (Pro), CNS1, CNS2 and CNS3 region and hsp90 promoter were used for qPCR quantification. Relative enrichment was calculated as fold change relative to the ChIP signal at the FoxP3 promoter of the DMSO-treated control. d and e, Flow cytometry and quantification of CD4^+ T cells stained intracellularly for FoxP3. […] Their mitochondrial and cytoplasmic ROS were measured by mitoSOX (h) and 2′,7′-dichlorofluorescein diacetate (DCFDA) (i), respectively. Total mitochondria mass was measured by MitoTracker (j) and the mitochondrial membrane potential measured by JC-1 dye (k). MFIs of different treatments were normalized as fold changes to those of DMSO control (n=3/group).
In Vitro T Cell Culture. Naïve CD4^+ (CD62L^+ CD44^− CD25^− CD4^+) T cells were isolated from the spleens and the lymph nodes of mice of designated genotypes with FACS sorting. For certain experiments, naïve CD4^+ T cells were enriched using naïve CD4^+ T cell isolation kits (Miltenyi). […]

Molecule: COc1cc(O)c(C(CC(=O)N2C[C@H](C)C[C@H](C)C2)c2ccc3c(c2)OCO3)c(OC)c1 (stereo partly shown) [ML209, reference compound]
RORγt reporter activity [1]: completely lost RORγt activity

Molecule: C[C@H](CCC(=O)O)[C@H]1CC[C@H]2[C@@H]3CC[C@H]4C[C@@H](O)CC[C@]4(C)[C@H]3CC[C@]12C [isoalloLCA, Isoallolithocholic acid]
reduction of Th17 cell differentiation ([2]; 20 μM): ~50%
logD at 18 h (physchem): 2.2
cell viability (CD4+ T cells): do not significantly affect cell proliferation, cell viability
cell viability (CD4+ T cells; listed as IsoalloLCA): did not impair cell viability

logD at 18 h (physchem): 3.6
Molecule: C[C@H](CCC(=O)O)[C@H]1CC[C@H]2[C@@H]3CC[C@@H]4C[C@H](O)CC[C@]4(C)[C@H]3CC[C@]12C [LCA, Lithocholic acid]

Kd relative to 3-oxoLCA [3]: ~20 times
Molecule: C[C@H](CCC(=O)O)[C@H]1CC[C@H]2[C@@H]3[C@H](O)C[C@@H]4CC(=O)CC[C@]4(C)[C@H]3C[C@H](O)[C@]12C [3-oxoCA, 3-oxocholic acid, reference compound]
Th17 cell differentiation (IL-17a) [2]: Neither 3-oxoCA nor 3-oxoDCA inhibited Th17 cell differentiation as robustly as 3-oxoLCA

logD at 18 h (physchem): 3.5
Molecule: C[C@H](CCC(=O)O)[C@H]1CC[C@H]2[C@@H]3CC[C@@H]4C[C@@H](O)CC[C@]4(C)[C@H]3CC[C@]12C [isoLCA, Isolithocholic acid]

Molecule: C[C@H](CCC(=O)O)[C@H]1CC[C@H]2[C@@H]3[C@H](O)C[C@@H]4C[C@H](O)CC[C@]4(C)[C@H]3CC[C@]12C [CDCA, Chenodeoxycholic acid]
Log D (pH = 8.0), previously reported [4]: 2.2

logD at 18 h [5]: 2.7
Molecule: C[C@H](CCC(=O)O)[C@H]1CC[C@H]2[C@@H]3CC[C@@H]4C[C@H](O)CC[C@]4(C)[C@H]3C[C@H](O)[C@]12C [DCA, Deoxycholic acid]

Molecule: CCNC(=O)C[C@@H]1N=C(c2ccc(Cl)cc2)c2cc(OC)ccc2-n2c(C)nnc21 [iBET, reference compound]
effect on isoalloLCA-dependent enhancement of FoxP3 ([6]; isoalloLCA 20 μM, TGF-β 0.05 ng/mL): prevented isoalloLCA-dependent enhancement of FoxP3 in a dose-dependent manner

Log D (pH = 8.0): 3.5
Molecule: C[C@H](CCC(=O)O)[C@H]1CC[C@H]2[C@@H]3CC[C@H]4C[C@H](O)CC[C@]4(C)[C@H]3CC[C@]12C [alloLCA, Allolithocholic acid]

Molecule: C[C@H](CCC(=O)NCC(=O)O)[C@H]1CC[C@H]2[C@@H]3CC[C@H]4C[C@@H](O)CC[C@]4(C)[C@H]3CC[C@]12C [Glyco-isoalloLCA]
cytotoxicity compared to isoalloLCA (CD4+ T cells; 10 or 20 μM): enhanced cytotoxicity at 10 or 20 μM compared to isoalloLCA

Molecule: C[n+]1ccc(-c2cc[n+](CCCCCCCCCC[P+](c3ccccc3)(c3ccccc3)c3ccccc3)cc2)cc1.[I-].[I-].[I-] [mitoPQ, mitoParaquat, reference compound]
FoxP3 expression / Treg differentiation in cells lacking CNS3 [6]: required the CNS3 enhancer and TGF-β
Treg differentiation (FoxP3 expression) ([6]; bile acids 20 μM, 3 days, anti-CD3/28, IL-2): sufficient to enhance mitoROS production and Treg differentiation in a dose-dependent manner
mitochondrial ROS (mitoROS) production (T cells): sufficient to enhance mitoROS production

logD at 18 h [5]: 2.5
Molecule: CC[C@H]1[C@@H](O)[C@@H]2[C@H](CC[C@]3(C)[C@@H]([C@H](C)CCC(=O)O)CC[C@@H]23)[C@@]2(C)CC[C@@H](O)C[C@@H]12 [OCA, Obeticholic acid]

Molecule: C[C@H](CCC(=O)O)[C@H]1CC[C@H]2[C@@H]3[C@@H](O)C[C@@H]4C[C@H](O)CC[C@]4(C)[C@H]3CC[C@]12C [UDCA, Ursodeoxycholic acid]
Log D (pH = 8.0), previously reported [4]: 2.2

Kd relative to 3-oxoLCA [3]: ~20 times
Molecule: C[C@H](CCC(=O)O)[C@H]1CC[C@H]2[C@@H]3CC[C@@H]4CC(=O)CC[C@]4(C)[C@H]3C[C@H](O)[C@]12C [3-oxoDCA, 3-oxodeoxycholic acid, reference compound]
Th17 cell differentiation (IL-17a) [2]: Neither 3-oxoCA nor 3-oxoDCA inhibited Th17 cell differentiation as robustly as 3-oxoLCA

Molecule: TGF-β: cytokine used for Treg culture
FoxP3 expression / Treg differentiation in cells lacking CNS3 [6]: boosted Treg differentiation in CNS3-deficient cells, albeit with reduced efficiency
